Structures can show the parent of a compound that is named as a salt.
Columns and labels:
Human DYRK1A = target: T1, Human DYRK1A (Homo sapiens, UniProt Q13627); test: DYRK1A Kinase TR-FRET (IMAP-Tb) Assay; assay type: biochemical; conditions: TR-FRET (IMAP-Tb); ATP 70 μM; 37° C., 60 minutes; average of multiple runs; read-out: Enzyme IC50 (μM) DYRK1A
T1 construct: purchased Invitrogen PV3997
Source text: DYRK1A Kinase TR-FRET (IMAP-Tb) Assay
The kinase TR-FRET (IMAP-Tb) assay uses a fluorescence labeled substrate peptide in the kinase reaction. Upon phosphorylation by the kinase, phosphopeptide is produced, which will be detected by the binding solution provided in IMAP TR-FRET binding kit. After the completion of the kinase reaction, the reaction will be stopped by adding the binding solution containing terbium tracer. This tracer is immobilized on the surface of the IMAP beads, which also contain metal ions on the beads that bind to the phospho-groups of the products. Thus the phosphorylated product of the reaction can enter into close proximity to the tracer, producing resonance energy transfer. Due to the long lifetime of terbium (Tb) fluorescence the detection can be run in time resolved mode, which virtually eliminates fluorescence interference from assay components or compounds.
The TR-FRET signal measurement from this assay, given as an IC50 measurement, is a measure of a test compound's ability to interfere with the phosphorylation of the peptide substrate, that is it inhibits the phosphorylation of the substrate peptide by DYRK1A, and is thus a measure of the test compound's ability to inhibit the activity of DYRK1A.
• 1. Human DYRK1A: from Invitrogen. Part #PV3997 • 2. Substrate Peptide: […] • 3. IMAP TR-FRET IPP Explorer Kit: from Molecular Devices. Part #R8157 • 4. Kinase Assay Buffer (KAB): 10 mM HEPES pH 7.0, 50 mM NaCl, 5 mM MgCl2, 1 mM DTT, 1 mM NaVO4, 200 μg/mL BSA (0.02%) • 5. Assay Plate: Remp polypropylene clear 384-well microplate. […] Detection Plate: Costa black 384-well microplate. […] Transfer 1.5 μL of 20× compound solution to each well of an assay plate. • 2. Add to each well 22.5 μL of KAB Buffer. • 3. Add to each well 3 μL of the solution of DYRK1A and ATP. […] Add to each well 3 μL of the substrate peptide. The assay concentration is 1.0 μM • 5. Incubate the assay plates at 37° C. for 60 minutes. • 6. Add 18 μL of Detection Solution (1:800 diluted Progress bead stock, 1:400 diluted Tb stock, 80% Buffer A, and 20% Buffer B) into each well of detection plates. • 7. Transfer 6 μL of assay solution from the assay plate to the detection plate. • 8. Shake detection plates for 30 minutes. • 9. Read plates in Envision with wavelength set at excitation 340 nm for Tb, emission 490 nm, and […].

Human DYRK1B = target: T2, Human DYRK1B (Homo sapiens, UniProt Q9Y463); test: DYRK1B Kinase TR-FRET (IMAP-Tb) Assay; assay type: biochemical; conditions: TR-FRET (IMAP-Tb); ATP 70 μM; 37° C., 60 minutes; average of multiple runs; read-out: Enzyme IC50 (μM) DYRK1B
T2 construct: purchased Invitrogen PR8350B (former PV4649)
T2 sequence (Q9Y463 whole entry): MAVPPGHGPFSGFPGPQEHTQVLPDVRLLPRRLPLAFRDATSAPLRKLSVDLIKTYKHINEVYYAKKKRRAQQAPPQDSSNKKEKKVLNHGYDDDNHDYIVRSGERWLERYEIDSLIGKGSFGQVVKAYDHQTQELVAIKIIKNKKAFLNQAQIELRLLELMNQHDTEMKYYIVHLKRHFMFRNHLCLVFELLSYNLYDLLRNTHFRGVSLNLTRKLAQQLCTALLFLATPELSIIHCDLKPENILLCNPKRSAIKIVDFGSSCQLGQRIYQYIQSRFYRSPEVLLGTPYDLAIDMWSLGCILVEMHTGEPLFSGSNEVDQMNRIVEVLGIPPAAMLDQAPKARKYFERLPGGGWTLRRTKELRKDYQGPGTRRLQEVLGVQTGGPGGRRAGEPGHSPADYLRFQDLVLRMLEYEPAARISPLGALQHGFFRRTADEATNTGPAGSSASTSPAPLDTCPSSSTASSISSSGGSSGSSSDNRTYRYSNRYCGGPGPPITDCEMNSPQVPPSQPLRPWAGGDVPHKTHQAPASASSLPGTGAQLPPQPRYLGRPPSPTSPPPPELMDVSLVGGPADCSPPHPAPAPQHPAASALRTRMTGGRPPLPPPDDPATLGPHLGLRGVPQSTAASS
Source text: DYRK1B Kinase TR-FRET (IMAP-Tb) Assay The kinase TR-FRET (IMAP-Tb) assay uses a fluorescence labeled substrate peptide in the kinase reaction. Upon phosphorylation by the kinase, phosphopeptide is produced, which will be detected by the binding solution provided in IMAP TR-FRET binding kit. After the completion of the kinase reaction, the reaction will be stopped by adding the binding solution containing terbium tracer. This tracer is immobilized on the surface of the IMAP beads, which also contain metal ions on the beads that bind to the phospho-groups of the products. Thus the phosphorylated product of the reaction can enter into close proximity to the tracer, producing resonance energy transfer. Due to the long lifetime of terbium (Tb) fluorescence the detection can be run in time resolved mode, which virtually eliminates fluorescence interference from assay components or compounds. The TR-FRET signal measurement from this assay, given as an IC50 measurement, is a measure of a test compound's ability to interfere with the phosphorylation of the peptide substrate, that is it inhibits the phosphorylation of the substrate peptide by DYRK1B, and is thus a measure of the test compound's ability to inhibit the activity of DYRK1B. […] Human DYRK1B: from Invitrogen. Part #PR8350B (former PV4649) • 2. Substrate Peptide: in-house synthesized: RRRFRPASPLRGPPK • 3. IMAP TR-FRET IPP Explorer Kit: from Molecular Devices. Part #R8157 • 4. Kinase Assay Buffer (KAB): 10 mM HEPES pH 7.0, 50 mM NaCl, 5 mM MgCl2, 1 mM DTT, 1 mM NaVO4, 200 μg/mL BSA (0.02%) • 5. Assay Plate: Remp polypropylene clear 384-well microplate. Cat#23490-102 • 6. Detection Plate: Costa black 384-well microplate. Cat #3710 Assay Procedure: This assay was performed as follows: • 1. Transfer 1.5 μL of 20× compound solution to each well of an assay plate. • 2. Add to each well 22.5 μL of KAB Buffer. • 3. Add to each well 3 μL of the solution of DYRK1B and ATP. […] Add to each well 3 μL of the substrate peptide. The assay concentration is 1.0 μM • 5. Incubate the assay plates at 37° C. for 60 minutes. • 6. Add 18 μL of Detection Solution (1:800 diluted Progress bead stock, 1:400 diluted Tb stock, 80% Buffer A, and 20% Buffer B) into each well of detection plates. • 7. Transfer 6 μL of assay solution from the assay plate to the detection plate. • 8. Shake detection plates for 30 minutes. • 9. Read plates in Envision with wavelength set at excitation 340 nm for Tb, emission 490 nm, and […] 520 nm. • 10. Calculation: TR-FRET Signal=(Reading at […]/Reading at 490 nM)×2000000

[1] = test system: SW620 human colon cancer cells; test: SW620 Cell Viability Assay; assay type: cell-based; conditions: SW-620, 96 h, 4 days incubation, CellTiter-Glo Luminescent Cell Viability Assay, read-out: Cellular EC50 (μM) SW620
Description: SW620 Cell Viability Assay
1. Cell Plate Preparation: SW620 human colon cancer cells (known to express DYRK1B), obtained from ATCC, were seeded into 96-well plates at 3×10^3 cells/well in 50 μL of media. • Harvested the required number of cells (counts & viability determined by Guava Viacount). • Centrifuge cells to pellet and removed supernant. • Resuspended in growth media (50 μL/well) & pipetted thoroughly to break up clumps. • Setup for ˜100 wells/plate, therefore, VT=5 mL/plate @ […]. 1A. Some cells (S—) were allowed to attach for 24 hrs, serum starved for 48 hrs, and then followed with drug treatments. Test compound solution were prepared in regular corresponding media supplemented with serum. 2. Test Compound Preparation: Test compounds were solubilized in either DMSO or media and prepared at various stock concentrations. • All compounds were incubated at 37° C. for 30 minutes and vortexed. • (5 mM stocks of test compound were prepared for non-soluble compounds)
• The 10 mM test compound stock was diluted to a concentration of 100× the final Cmax concentration. • Then the test compound stock is diluted 50-fold in media and/or second compound for a final Cmax concentration in the test compound plate. • The Cmax in the test compound plate (2% DMSO) is 2-fold higher than the final Cmax in the cell plate (60 uL titrations were 1:3). 4. Viability Assay: This assay was performed as follows: • Transfer 50 μL of test compound solution per well from the test compound plate onto the cell plate prepared in Step #1. • Mix the plate with treated cells by pipetting up and down three times with 200 μL multi-channel pipette. • Incubate the cells in 5% CO2 incubator @ 37° C. for 4 days. • Run the CellTiter-Glo™ Luminescent Cell Viability Assay.
The results of this assay, given as EC50 values, indicate the concentration of test compound that inhibits tumor cell proliferation by 50%.

Row | Structure (SMILES) | IC50 (Human DYRK1A) [µM] | IC50 (Human DYRK1B) [µM] | EC50 [1] [µM]
1 | COc1ccc2cc(C(=O)Nc3cc(C(=O)NCc4cccc(Cl)c4)ccc3Cl)c(=O)[nH]c2n1 [Example 95, N-(2-Chloro-5-(3-chlorobenzylcarbamoyl)phenyl)-7-methoxy-2-oxo-1,2-dihydro-1,8-naphthyridine-3-carboxamide] | 0.019 | 0.047 | 1.24
2 | COC(=O)c1ccc(C)c(NC(=O)c2cc3cnc(NCC(O)CO)cc3[nH]c2=O)c1 (stereo not drawn) [Example 49, 3-{[7-(2,3-Dihydroxy-propylamino)-2-oxo-1,2-dihydro-[1,6]naphthyridine-3-carbonyl]-amino}-4-methyl-benzoic acid methyl ester; hydrochloride] | 0.3 | 0.537 | > 10
3 | COc1cc2[nH]c(=O)c(C(=O)Nc3cc(C(=O)NCc4ccsc4)ccc3C)cc2cn1 [Example 38, 7-Methoxy-2-oxo-1,2-dihydro-[1,6]naphthyridine-3-carboxylic acid {2-methyl-5-[(thiophen-3-ylmethyl)-carbamoyl]-phenyl}-amide] | 0.266 | 0.424 | > 10
4 | COc1cc2[nH]c(=O)c(C(=O)Nc3cc(C(=O)NC(CCN)c4ccsc4)ccc3C)cc2cn1 (stereo not drawn) [Example 63, 7-Methoxy-2-oxo-1,2-dihydro-[1,6]naphthyridine-3-carboxylic acid [5-(3-amino-1-thiophen-3-yl-propylcarbamoyl)-2-methyl-phenyl]-amide] | 0.0046 | 0.023 | 0.205
5 | COc1cc2[nH]c(=O)c(C(=O)Nc3cc(C(=O)NC(CN)c4cccc(Cl)c4)ccc3Cl)cc2cn1 (stereo not drawn) [Example 51, 7-Methoxy-2-oxo-1,2-dihydro-[1,6]naphthyridine-3-carboxylic acid {5-[2-amino-1-(3-chloro-phenyl)-ethylcarbamoyl]-2-chloro-phenyl}-amide; hydrochloride] | 0.0198 | 0.119 | 0.373
6 | COc1cc2[nH]c(=O)c(C(=O)Nc3cc(C(=O)NCc4cccs4)ccc3C)cc2cn1 [Example 37, 7-Methoxy-2-oxo-1,2-dihydro-[1,6]naphthyridine-3-carboxylic acid {2-methyl-5-[(thiophen-2-ylmethyl)-carbamoyl]-phenyl}-amide] | 0.588 | 0.917 | 0.47
7 | COc1cc2[nH]c(=O)c(C(=O)Nc3cc(C(=O)NC(CN)c4ccccc4)ccc3C)cc2cn1 (stereo not drawn) [Example 55, 7-Methoxy-2-oxo-1,2-dihydro-[1,6]naphthyridine-3-carboxylic acid [5-(2-amino-1-phenyl-ethylcarbamoyl)-2-methyl-phenyl]-amide; hydrochloride] | 0.0506 | 0.0915 | 0.68
8 | COc1cc2[nH]c(=O)c(C(=O)Nc3cc(C(=O)NC(CCN)c4cccc(Cl)c4)ccc3Cl)cc2cn1 (stereo not drawn) [Example 67, 7-Methoxy-2-oxo-1,2-dihydro-[1,6]naphthyridine-3-carboxylic acid {5-[3-amino-1-(3-chloro-phenyl)-propylcarbamoyl]-2-chloro-phenyl}-amide; hydrochloride] | 0.00952 | 0.0854 | 0.103
9 | COC(=O)c1ccc(Cl)c(NC(=O)c2cc3cnc(OC)cc3[nH]c2=O)c1 [Example 30, 4-Chloro-3-[(7-methoxy-2-oxo-1,2-dihydro-[1,6]naphthyridine-3-carbonyl)-amino]-benzoic acid methyl ester] | 0.135 | 0.119 | > 10
10 | COc1ccc2cc(C(=O)Nc3cc(C(=O)NC(CCN)c4ccccc4)ccc3Cl)c(=O)[nH]c2n1 (stereo not drawn) [Example 101, N-(5-(3-Amino-1-phenylpropylcarbamoyl)-2-chlorophenyl)-7-methoxy-2-oxo-1,2-dihydro-1,8-naphthyridine-3-carboxamide] | 0.0392 | 0.0527 | 0.0273
11 | COC(=O)c1ccc(Cl)c(NC(=O)c2cc3ccc(N4CCN(C)CC4)nc3[nH]c2=O)c1 [Example 88, 4-Chloro-3-{[7-(4-methyl-piperazin-1-yl)-2-oxo-1,2-dihydro-[1,8]naphthyridine-3-carbonyl]-amino}-benzoic acid methyl ester] | 0.451 | 0.513 | 1.53
12 | COc1cc2[nH]c(=O)c(C(=O)Nc3cc(C(=O)NC(CN)c4ccsc4)ccc3C)cc2cn1 (stereo not drawn) [Example 59, 7-Methoxy-2-oxo-1,2-dihydro-[1,6]naphthyridine-3-carboxylic acid [5-(2-amino-1-thiophen-3-yl-ethylcarbamoyl)-2-methyl-phenyl]-amide; hydrochloride] | 0.0113 | 0.0308 | 0.299

Source: patent US20120184562A1, “1,6- AND 1,8-NAPHTHYRIDINES” (priority 2011, published 2012)
